Results taken from patent US20150030566A1, “ANTIMICROBIAL PEPTIDE COMPOSITIONS FOR PLANTS” (Stellenbosch University, priority 2012, published 2015).
Residues, ends and D or L forms follow the SMILES beside them.

What was measured:
[1] = tested on: Talaromyces ramulosus (peach isolate); test: Microdilution broth assay; assay type: cell-based; set-up: unit not given beside the values
Experimental: (§1) Microdilution broth and agar assays were used to assess the antifungal activity of the cyclic decapeptides in liquid media and on solid (gel) media, respectively.
(§2) The antibacterial activity of the tyrocidines and gramicidin S against all the bacteria tested was determined by the methods described by Du Toit E A and Rautenbach M (2000) J. Microbiol. Methods, 42, 159-165. The antifungal activity of the tyrocidines against all the […] tested was determined by the methods described by Troskie A M, Vlok N M and Rautenbach M (2012) J. Microbiol. Methods, 91, 551-558.

[2] = tested on: Bacillus spizizenii ATCC 6633; test: Microdilution broth assay; assay type: cell-based; set-up: unit not given beside the values
Experimental: as §1, §2

[3] = tested on: Listeria monocytogenes B73-MR1; test: Microdilution broth assay; assay type: cell-based; set-up: unit not given beside the values
Experimental: as §1, §2

Bacillus subtilis 168 = test: Microdilution broth assay; assay type: cell-based; set-up: unit not given beside the values
Experimental: as §1, §2

Escherichia coli HB101 = test: Microdilution broth assay; assay type: cell-based; set-up: unit not given beside the values
Experimental: as §1, §2

[4] = tested on: Bacillus subtilis ATCC21332; test: Microdilution broth assay; assay type: cell-based; set-up: unit not given beside the values
Experimental: as §1, §2

[5] = tested on: Talaromyces mineoluteus (peach isolate); test: Microdilution broth assay; assay type: cell-based; set-up: unit not given beside the values
Experimental: as §1, §2

Bacillus subtilis OKB105 = test: Microdilution broth assay; assay type: cell-based; set-up: unit not given beside the values
Experimental: as §1, §2

[6] = tested on: Micrococcus luteus NCTG 8340; test: Microdilution broth assay; assay type: cell-based; set-up: unit not given beside the values
Experimental: as §1, §2

[7] = tested on: Cylindrocarpon liriodendri; test: Microdilution broth assay; assay type: cell-based; set-up: unit not given beside the values
Experimental: as §1, §2

[8] = tested on: Listeria monocytogenes B73; test: Microdilution broth assay; assay type: cell-based; set-up: unit not given beside the values
Experimental: as §1, §2

[9] = tested on: Trichoderma atroviride (wood isolate); test: Microdilution broth assay; assay type: cell-based; set-up: unit not given beside the values
Experimental: as §1, §2

Bacillus subtilis OKB120 = test: Microdilution broth assay; assay type: cell-based; set-up: unit not given beside the values
Experimental: as §1, §2

Phaeoacremonium = test: Hydration tank assay, spore viability; assay type: cell-based
Experimental: (§3) This loss of activity in solution was, however, overcome by increasing the Trx mix concentration to 20 mg/L. It must also be emphasized that the Trc mix activity was tested at 10 times (10^7 spores/L) the spore concentration used for the testing of commercial fungicides and at 100 times the spore concentration usually observed in contaminated grapevine material (personal communication with the Department of Plant pathology, Stellenbosch University).
(§4) The activities of the GS and Trc mix were also assessed in the presence of and absence of grapevine stem material in a simulated hydration tank environment. Each 5.0 mL assay contained fungal spores at 10 000 spores/mL, peptide at 10 and 20 μg/mL and grapevine stem material. Grapevine stem material was washed with 70% ethanol and rinsed with sterile water before placement in inoculated hydration tanks, whereafter the Trc mix was added. Controls contained either the peptide or grapevine stem material. The assays were incubated at room temperature for 16 hours, whereafter three 100 μl aliquots of each assay were plated on PDA agar and allowed to grow for three days at 25° C. Some plates were stained with Coomassie brilliant blue stain (0.025% Coomassie, 12.5% isopropanol and 10% acetic acid) for better visualization of the fungal colonies. The number of colonies that developed after three days was recorded and expressed as percentage viable spores after comparing to the control samples which contained no peptide.

Phomopsis = test: Hydration tank assay, spore viability; assay type: cell-based; settings: 10 μg/ml peptide
Experimental: as §3, §4

Fusarium solani = test: Microdilution broth assay; assay type: cell-based; set-up: MIC against F. solani in PDB (n): unit not given beside the values
Experimental: as §1, §2

bacteria = test: Sterilization of field-gathered grapevine material, antibacterial efficacy; assay type: in vivo; settings: selected cases
Experimental: The Trc mix and GS were also tested for use in the sterilization of field-gathered grapevine material for use in plant cultures.

[10] = tested on: Phaeoacremonium aleophilum; test: Agar assay; assay type: cell-based
Experimental: as §1, §2

[11] = tested on: Penicillium digitatum (citrus isolate); test: Agar assay; assay type: cell-based
Experimental: as §1, §2

P. digitatum = test: Preliminary trials on oranges, wound infections; assay type: in vivo; settings: 50 mg/L (50 ppm)
Experimental: Promising results in preliminarily trials on oranges have also been observed, with 50% and 80% less wound infections by P. digitatum using 50 mg/L (50 ppm) Trc mix and GS, respectively.

Q: For `CC(C)C[C@@H]1NC(=O)[C@H](CCCN)NC(=O)[C@H](C(C)C)NC(=O)C2CCCN2C(=O)[C@@H](Cc2ccccc2)NC(=O)[C@H](CC(C)C)NC(=O)[C@H](CCCN)NC(=O)[C@H](C(C)C)NC(=O)C2CCCN2C(=O)[C@@H](Cc2ccccc2)NC1=O` (stereo partly shown) [GS, Cyclo-(VOLfPVOLfP)] (HELM PEPTIDE1{L.[dF].[O=C(C1CCCN1[*:1])[*:2]].V.[Orn].L.[dF].[O=C(C1CCCN1[*:1])[*:2]].V.[Orn]}$PEPTIDE1,PEPTIDE1,1:R1-10:R2$$$V2.0), which “MIC + SEM” value [1] is on record?
A: 3.0 ± 0.1

Q: And the “MIC + SEM” value [2]?
A: 2.6 ± 0.2

Q: And the “MIC + SEM” value [3]?
A: 5.6 ± 0.1

Q: And the “MIC + SEM” value (Bacillus subtilis 168)?
A: 8-14

Q: What about the “MIC + SEM” value (Escherichia coli HB101) of the same molecule?
A: 44

Q: And the “MIC + SEM” value [4]?
A: 8-14

Q: And the “MIC + SEM” value [5]?
A: 4.2 ± 0.2

Q: And the “MIC + SEM” value (Bacillus subtilis OKB105)?
A: 8-14

Q: What about the “MIC + SEM” value [6] of the same molecule?
A: 28 ± 0.4

Q: What about the “MIC + SEM” value [7] of the same molecule?
A: 2.3 ± 0.1

Q: And the “MIC + SEM” value [8]?
A: 9.9 ± 0.2

Q: What about the “MIC + SEM” value [9] of the same molecule?
A: 4.8 ± 0.3

Q: What about the “MIC + SEM” value (Bacillus subtilis OKB120) of the same molecule?
A: 8-14

Q: And the “percentage viable spores compared to the growth/survival controls” value (Phaeoacremonium; +gvs, 10 μg/ml peptide)?
A: 0%

Q: And the “percentage viable spores compared to the growth/survival controls” value (Phaeoacremonium; +gvs, 20 μg/ml peptide)?
A: 0%

Q: And the “percentage viable spores compared to the growth/survival controls” value (Phaeoacremonium; −gvs, 10 μg/ml peptide)?
A: 0%

Q: And the “percentage viable spores compared to the growth/survival controls” value (Phaeoacremonium; −gvs, 20 μg/ml peptide)?
A: 0%

Q: And the “percentage viable spores compared to the growth/survival controls” value (Phomopsis; +gvs)?
A: 0%

Q: What about the “percentage viable spores compared to the growth/survival controls” value (Phomopsis; −gvs) of the same molecule?
A: 0%

Q: What about the “MIC + SEM” value (Fusarium solani; Broth, Fusarium solani) of the same molecule?
A: 2.5 ± 0.1

Q: And the “MIC against F. solani in PDB (n)” value (Fusarium solani; potato dextrose broth (low salt PDB))?
A: 2.2 ± 0.1

Q: And the antibacterial efficacy (bacteria)?
A: good antibacterial activity

Q: And the “MIC + SEM” value [10]?
A: <10

Q: What about the “MIC + SEM” value [11] of the same molecule?
A: <20

Q: What about the “less wound infections by P. digitatum” value (P. digitatum) of the same molecule?
A: 80%
